# According to patent US10597388B2, “Pyridazinone herbicides” (FMC CORPORATION, priority 2014, dated 2020):
# Legend:
# Format in all cases: in vivo
# [1] = test system: blackgrass (Alopecurus myosuroides); assay: Test A greenhouse herbicide test, postemergence
# In short: (§1)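 Pot-grown plants (loam soil/sand blend), 2–10 cm tall at the one- to two-leaf stage, received postemergence sprays of formulated test chemical. After about 10 d in the greenhouse, injury was rated visually against untreated controls on a 0 (no effect) to 100 (complete control) scale.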
# [2] = test system: galium (catchweed bedstraw, Galium aparine); assay: Test A greenhouse herbicide test, postemergence
# In short: as §1
# [3] = test system: barnyardgrass (Echinochloa crus-galli); assay: Test C greenhouse herbicide test, pre- and postemergence
# In short: (§2)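 Seeds sown in loam–sand blend treated preemergence; plants in peat-based medium sprayed postemergence at 2–18 cm (1- to 4-leaf stage); chemicals in non-phytotoxic solvent with surfactant. Greenhouse 13–15 d, then visual rating versus controls on 0–100 scale (0 no effect, 100 complete control).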
# [4] = test system: crabgrass, large (large crabgrass, Digitaria sanguinalis); assay: as above
# In short: as §2
# [5] = test system: foxtail, giant (giant foxtail, Setaria faberii); assay: as above
# In short: as §2
# [6] = test system: galium (catchweed bedstraw, Galium aparine); assay: as above
# In short: as §2
# [7] = test system: johnsongrass (Sorghum halepense); assay: as above
# In short: as §2
# [8] = test system: lambsquarters (Chenopodium album); assay: as above
# In short: as §2
# [9] = test system: morningglory (Ipomoea coccinea); assay: as above
# In short: as §2
# [10] = test system: oilseed rape (Brassica napus); assay: as above
# In short: as §2
# [11] = test system: ragweed (common ragweed, Ambrosia elatior); assay: as above
# In short: as §2
# [12] = test system: ryegrass, Italian (Italian ryegrass, Lolium multiflorum); assay: as above
# In short: as §2
# [13] = test system: wheat (winter wheat, Triticum aestivum); assay: as above
# In short: as §2
# [14] = 125 g ai/ha, 0 to 100 scale where 0 is no effect and 100 is complete control
# [15] = 500 g ai/ha, 0 to 100 scale, 0 is no effect, 100 is complete control
# [16] = Postemergence, 31 g ai/ha, 0 to 100 scale (0 no effect, 100 complete control)
# [17] = Postemergence, 125 g ai/ha, scale 0 to 100, 0 is no effect, 100 is complete control
# [18] = Postemergence, 250 g ai/ha, scale 0 to 100, 0 no effect, 100 complete control, 13 to 15 d
# [19] = Preemergence, 31 g ai/ha, scale 0 to 100, 0 is no effect, 100 is complete control
# [20] = Preemergence, 62 g ai/ha, scale 0 to 100, 0 is no effect, 100 is complete control
# [21] = Preemergence, 125 g ai/ha, scale 0 to 100, 0 is no effect, 100 is complete control
# [22] = Preemergence, 250 g ai/ha, scale 0 to 100, 0 no effect, 100 complete control
# [23] = postemergence, 62 g ai/ha, scale 0 to 100, 0 no effect, 100 complete control
structure (smiles),measurement,setting,value
COC(=O)Oc1c(C)nn(C)c(=O)c1-c1c(C)sc2ccc(C)cc12 [Compound 80],"Plant response rating, Blackgrass",[1]; [14],80
same,Blackgrass plant response rating,[1]; [15],80
same,"Plant response rating, Galium",[2]; [14],90
same,Galium plant response rating,[2]; [15],90
same,Barnyardgrass plant response rating,[3]; [16],25
same,"Plant response rating, Barnyardgrass",[3]; [17],35
same,"Plant response rating, Barnyardgrass",[3]; [18],35
same,"Plant response rating, Barnyardgrass",[3]; [19],10
same,"Plant response rating, Barnyardgrass",[3]; [20],65
same,"Plant response rating, Barnyardgrass",[3]; [21],75
same,Barnyardgrass plant response rating,[3]; [22],85
same,Barnyardgrass plant response rating,[3]; [23],30
same,"Crabgrass, Large plant response rating",[4]; [16],10
same,"Plant response rating, Crabgrass, Large",[4]; [17],30
same,"Plant response rating, Crabgrass, Large",[4]; [18],35
same,"Plant response rating, Crabgrass, Large",[4]; [19],10
same,"Plant response rating, Crabgrass, Large",[4]; [20],15
same,"Plant response rating, Crabgrass, Large",[4]; [21],40
same,"Crabgrass, Large plant response rating",[4]; [22],75
same,"Crabgrass, Large plant response rating",[4]; [23],25
same,"Foxtail, Giant plant response rating",[5]; [16],25
same,"Plant response rating, Foxtail, Giant",[5]; [17],70
same,"Plant response rating, Foxtail, Giant",[5]; [18],90
same,"Plant response rating, Foxtail, Giant",[5]; [19],70
same,"Plant response rating, Foxtail, Giant",[5]; [20],85
same,"Plant response rating, Foxtail, Giant",[5]; [21],85
same,"Foxtail, Giant plant response rating",[5]; [22],98
same,"Foxtail, Giant plant response rating",[5]; [23],55
same,Galium plant response rating,[6]; [16],90
same,"Plant response rating, Galium",[6]; [17],95
same,"Plant response rating, Galium",[6]; [18],95
same,"Plant response rating, Galium",[6]; [19],90
same,"Plant response rating, Galium",[6]; [20],95
same,"Plant response rating, Galium",[6]; [21],95
same,Galium plant response rating,[6]; [22],95
same,Galium plant response rating,[6]; [23],95
same,Johnsongrass plant response rating,[7]; [16],5
same,"Plant response rating, Johnsongrass",[7]; [17],5
same,"Plant response rating, Johnsongrass",[7]; [18],15
same,"Plant response rating, Johnsongrass",[7]; [19],5
same,"Plant response rating, Johnsongrass",[7]; [20],5
same,"Plant response rating, Johnsongrass",[7]; [21],30
same,Johnsongrass plant response rating,[7]; [22],35
same,Johnsongrass plant response rating,[7]; [23],5
same,Lambsquarters plant response rating,[8]; [16],95
same,"Plant response rating, Lambsquarters",[8]; [17],98
same,"Plant response rating, Lambsquarters",[8]; [18],100
same,"Plant response rating, Lambsquarters",[8]; [19],90
same,"Plant response rating, Lambsquarters",[8]; [20],90
same,"Plant response rating, Lambsquarters",[8]; [21],90
same,Lambsquarters plant response rating,[8]; [22],98
same,Lambsquarters plant response rating,[8]; [23],95
same,Morningglory plant response rating,[9]; [16],100
same,"Plant response rating, Morningglory",[9]; [17],100
same,"Plant response rating, Morningglory",[9]; [18],98
same,"Plant response rating, Morningglory",[9]; [19],85
same,"Plant response rating, Morningglory",[9]; [20],90
same,"Plant response rating, Morningglory",[9]; [21],90
same,Morningglory plant response rating,[9]; [22],98
same,Morningglory plant response rating,[9]; [23],100
same,Oilseed Rape plant response rating,[10]; [16],5
same,"Plant response rating, Oilseed Rape",[10]; [17],60
same,"Plant response rating, Oilseed Rape",[10]; [18],80
same,"Plant response rating, Oilseed Rape",[10]; [19],0
same,"Plant response rating, Oilseed Rape",[10]; [20],30
same,"Plant response rating, Oilseed Rape",[10]; [21],50
same,Oilseed Rape plant response rating,[10]; [22],0
same,Oilseed Rape plant response rating,[10]; [23],50
same,Ragweed plant response rating,[11]; [16],98
same,"Plant response rating, Ragweed",[11]; [17],98
same,"Plant response rating, Ragweed",[11]; [18],98
same,"Plant response rating, Ragweed",[11]; [19],90
same,"Plant response rating, Ragweed",[11]; [20],95
same,"Plant response rating, Ragweed",[11]; [21],95
same,Ragweed plant response rating,[11]; [22],100
same,Ragweed plant response rating,[11]; [23],90
same,"Ryegrass, Italian plant response rating",[12]; [16],80
same,"Plant response rating, Ryegrass, Italian",[12]; [17],85
same,"Plant response rating, Ryegrass, Italian",[12]; [18],85
same,"Plant response rating, Ryegrass, Italian",[12]; [19],35
same,"Plant response rating, Ryegrass, Italian",[12]; [20],70
same,"Plant response rating, Ryegrass, Italian",[12]; [21],90
same,"Ryegrass, Italian plant response rating",[12]; [22],90
same,"Ryegrass, Italian plant response rating",[12]; [23],85
same,Wheat plant response rating,[13]; [16],0
same,"Plant response rating, Wheat",[13]; [17],10
same,"Plant response rating, Wheat",[13]; [18],15
same,"Plant response rating, Wheat",[13]; [19],0
same,"Plant response rating, Wheat",[13]; [20],0
same,"Plant response rating, Wheat",[13]; [21],0
same,Wheat plant response rating,[13]; [22],0
same,Wheat plant response rating,[13]; [23],5
